Reference: publication PMC4497506 (Journal of medicinal chemistry, 2015)
*1 amine or outer side, *2 acyl side, *3 side chain or, on linkers, in order; H or OH if unused. Where a SMILES comes first, the peptide text is derived from it. [ ]: non-standard residue; d: D form. X1 = O=C([C@@H]1C[C@H](n2cc([C]34[CH]5[CH]6[CH]7[CH]3[Fe]6754389%10[CH]4[CH]3[CH]8[CH]9[CH]4%10)nn2)CN1[*:1])[*:2]; X2 = O=C([C@@H]1C[C@H](n2nncc2[C]23[CH]4[CH]5[CH]6[CH]2[Fe]56432789[CH]3[CH]2[CH]7[CH]8[CH]39)CN1[*:1])[*:2]; Bta = N[C@@H](Cc1csc2ccccc12)C(=O)O

What was measured:
gp120YU-2 S375H = gp120YU-2 S375H (Human immunodeficiency virus type 1 group M subtype B, UniProt P35961, S370H); experiment: Competition SPR: inhibition of gp120 S375H binding to sCD4; parameters: species or system HIV-1
wt gp120YU-2 = wt gp120YU-2 (Human immunodeficiency virus type 1 group M subtype B, UniProt P35961); experiment: Competition SPR: inhibition of wt gp120YU-2 binding to immobilized sCD4; parameters: species or system HIV-1; conditions: relative to peptide 1

Structure (SMILES) | inhibition of S375H mutant binding to sCD4 (gp120YU-2 S375H) | weaker binding than peptide 1 (wt gp120YU-2) [fold]
CC[C@H](C)[C@H](N)C(=O)N[C@@H](CC(N)=O)C(=O)N[C@@H](CC(N)=O)C(=O)N[C@H](C(=O)N1C[C@@H](n2cc([C]34[CH]5[CH]6[CH]7[CH]3[Fe]6754389%10[CH]4[CH]3[CH]8[CH]9[CH]4%10)nn2)C[C@H]1C(=O)N[C@@H](Cc1csc2ccccc12)C(N)=O)[C@@H](C)CC (some centres unmarked) [peptide 3] (H-INNI[X1][Bta]-NH2) | resistant | –
CC[C@H](C)[C@H](N)C(=O)N[C@@H](CC(N)=O)C(=O)N[C@@H](CC(N)=O)C(=O)N[C@H](C(=O)N1C[C@@H](n2nncc2[C]23[CH]4[CH]5[CH]6[CH]2[Fe]56432789[CH]3[CH]2[CH]7[CH]8[CH]39)C[C@H]1C(=O)N[C@@H](Cc1c[nH]c2ccccc12)C(N)=O)[C@@H](C)CC (some centres unmarked) [peptide 6] (H-INNI[X2]W-NH2) | – | ~200
